Source: BindingDB's records for doi:10.1016/j.bmcl.2011.03.068 (The University of Utah, 2011)

Biological target: Autotaxin (Homo sapiens, UniProt Q13822)
Test: Inhibition of human recombinant ATX lysophospholipase activity expressed in insect sf9 cells using FS-3 fluorogenic substrate preincubated for 10 mins measured after 5 and 25 mins by fluorometric analysis

Row | Compound | Ki [nM]
1 | CCCCCCCCCC(=O)Nc1ccc(C(O)P(=O)(O)O)cc1 (configuration not stated) | 24
2 | CCCCCCCCCCCCCC(=O)Nc1ccc(C(O)P(=O)(O)O)cc1 (configuration not stated) | 24
